Laboratory results published in US20110160306A1, “USE OF ALKANEDICARBOXYLIC ACIDS AND RETINOIDS FOR TREATMENT OF ROSACEA AND OTHER INFLAMMATORY SKIN DISEASES” (priority 2006, published 2011).

Tested on: irritative contact dermatitis induced on the ears of mice by croton oil
Experiment: Croton oil-induced irritative contact dermatitis on the mouse ear (ear weight, elastase and peroxidase in ear homogenate)
Format: in vivo
Conditions: for Edema formation Weight change in %: ear weight at 24 h, vs croton oil + vehicle; for Inhibition [%] of Skin infiltration of Granulocytes & Monocytes (Myelo-Peroxidase Activity) / Inhibition [%] of Skin infiltration of Neutrophils Elastase Activity: ear homogenate at 24 h
Text: To do this, an inflammatory reaction, i.e., irritative contact dermatitis, is induced on the ears of mice by means of croton oil, and the test substance is applied. This test is explained in more detail below within the framework of the examples. The induction of an inflammatory reaction (irritative contact dermatitis) is a proven model for pharmacological evaluation of the anti-inflammatory potential of topically or systemically administered test substances ([…] and Lowe (1985) Evaluation of Topical Nonsteroidal Anti-Inflammatory Agents, Models in Dermatology, H. Maibach and N.J. Lowe. Basel, Karger: 35-42). Croton oil is applied to the ears of mice to carry out the study; this leads to an acute, inflammatory reaction with edema and infiltration of primarily polymorphonuclear granulocytes that reaches its peak within 24 hours. Test substance can be applied here either preventively, i.e., before application of the inflammatory stimulus, or simultaneously with croton oil. […] The vehicle alone acted as the vehicle control. […] The animals were sacrificed 24 hours after the eczema was triggered, and the ear weight was determined as a measure of inflammation and edema formation. In addition, the elastase and peroxidase parameters were determined from the ear homogenate. The number of animals was basically n=10/group. Elastase is a largely neutrophil-specific enzyme and thus a measure of the number of infiltrated neutrophilic granulocytes. […] Peroxidase is expressed by all granulocytes, in addition also by monocytes. It is used for measuring the infiltrated granulocytes and monocytes. Like neutrophils, granulocytes and monocytes/macrophages are also involved in inflammatory processes of the skin and can be repeatedly detected in the infiltrate of the aforementioned diseases.

[1] = tretinoin 0.05%, listed as tretinoin
[2] = azelaic acid 10%, listed as azelaic acid
[3] = azelaic acid 20%, listed as azelaic acid

SMILES: CC1=C(/C=C/C(C)=C/C=C/C(C)=C/C(=O)O)C(C)(C)CCC1 [Tretinoin, tretinoin]
- Edema formation Weight change in % (tretinoin 0.05% topical with 1% croton oil): −4%
- Edema formation Weight change in % (tretinoin 0.05% topical with 1% croton oil, listed as tretinoin): does not lead to any significant reduction of edema
- Inhibition [%] of Skin infiltration of Granulocytes & Monocytes (Myelo-Peroxidase Activity) (tretinoin 0.05%): −3%
- Inhibition [%] of Skin infiltration of Neutrophils Elastase Activity (tretinoin 0.05%): 2%
- Inhibition [%] of Skin infiltration of Granulocytes & Monocytes (Myelo-Peroxidase Activity) [1]: did not lead to a significant decrease of peroxidase concentration
- Inhibition [%] of Skin infiltration of Neutrophils Elastase Activity [1]: did not lead to a decrease of the elastase concentration

SMILES: O=C(O)CCCCCCCC(=O)O [Azelaic acid, azelaic acid]
- Edema formation Weight change in % (azelaic acid 10% topical with 1% croton oil): −6%
- Edema formation Weight change in % (azelaic acid 10% topical with 1% croton oil, listed as azelaic acid): no significant reduction of the edema
- Inhibition [%] of Skin infiltration of Granulocytes & Monocytes (Myelo-Peroxidase Activity) (azelaic acid 10%): −34%
- Inhibition [%] of Skin infiltration of Neutrophils Elastase Activity (azelaic acid 10%): −12%
- Inhibition [%] of Skin infiltration of Granulocytes & Monocytes (Myelo-Peroxidase Activity) [2]: could already be influenced
- Inhibition [%] of Skin infiltration of Neutrophils Elastase Activity [2]: cannot be significantly influenced
- Edema formation Weight change in % (azelaic acid 15% topical with 1% croton oil): 1%
- Edema formation Weight change in % (azelaic acid 15% topical with 1% croton oil, listed as azelaic acid): even an increase
- Inhibition [%] of Skin infiltration of Granulocytes & Monocytes (Myelo-Peroxidase Activity) (azelaic acid 15%): −16%
- Inhibition [%] of Skin infiltration of Neutrophils Elastase Activity (azelaic acid 15%): −6%
- Inhibition [%] of Skin infiltration of Neutrophils Elastase Activity (azelaic acid 15%, listed as azelaic acid): cannot be significantly influenced
- Edema formation Weight change in % (azelaic acid 20% topical with 1% croton oil): −16%
- Edema formation Weight change in % (azelaic acid 20% topical with 1% croton oil, listed as azelaic acid): no significant reduction of the edema
- Inhibition [%] of Skin infiltration of Granulocytes & Monocytes (Myelo-Peroxidase Activity) (azelaic acid 20%): −40%
- Inhibition [%] of Skin infiltration of Neutrophils Elastase Activity (azelaic acid 20%): −48%
- Inhibition [%] of Skin infiltration of Granulocytes & Monocytes (Myelo-Peroxidase Activity) [3]: could already be influenced
- Inhibition [%] of Skin infiltration of Neutrophils Elastase Activity [3]: reduced
